Values quoted from earlier work as cited in US12318448B2, “Use of TLR agonist and anti-CD47 agent to enhance phagocytosis of cancer cells” (The Board of Trustees of the Leland Stanford Junior …, priority 2015, dated 2025).

Biological target: T1, TLR7 (Homo sapiens, UniProt Q9NYK1)
T1 sequence (Q9NYK1 27-1049): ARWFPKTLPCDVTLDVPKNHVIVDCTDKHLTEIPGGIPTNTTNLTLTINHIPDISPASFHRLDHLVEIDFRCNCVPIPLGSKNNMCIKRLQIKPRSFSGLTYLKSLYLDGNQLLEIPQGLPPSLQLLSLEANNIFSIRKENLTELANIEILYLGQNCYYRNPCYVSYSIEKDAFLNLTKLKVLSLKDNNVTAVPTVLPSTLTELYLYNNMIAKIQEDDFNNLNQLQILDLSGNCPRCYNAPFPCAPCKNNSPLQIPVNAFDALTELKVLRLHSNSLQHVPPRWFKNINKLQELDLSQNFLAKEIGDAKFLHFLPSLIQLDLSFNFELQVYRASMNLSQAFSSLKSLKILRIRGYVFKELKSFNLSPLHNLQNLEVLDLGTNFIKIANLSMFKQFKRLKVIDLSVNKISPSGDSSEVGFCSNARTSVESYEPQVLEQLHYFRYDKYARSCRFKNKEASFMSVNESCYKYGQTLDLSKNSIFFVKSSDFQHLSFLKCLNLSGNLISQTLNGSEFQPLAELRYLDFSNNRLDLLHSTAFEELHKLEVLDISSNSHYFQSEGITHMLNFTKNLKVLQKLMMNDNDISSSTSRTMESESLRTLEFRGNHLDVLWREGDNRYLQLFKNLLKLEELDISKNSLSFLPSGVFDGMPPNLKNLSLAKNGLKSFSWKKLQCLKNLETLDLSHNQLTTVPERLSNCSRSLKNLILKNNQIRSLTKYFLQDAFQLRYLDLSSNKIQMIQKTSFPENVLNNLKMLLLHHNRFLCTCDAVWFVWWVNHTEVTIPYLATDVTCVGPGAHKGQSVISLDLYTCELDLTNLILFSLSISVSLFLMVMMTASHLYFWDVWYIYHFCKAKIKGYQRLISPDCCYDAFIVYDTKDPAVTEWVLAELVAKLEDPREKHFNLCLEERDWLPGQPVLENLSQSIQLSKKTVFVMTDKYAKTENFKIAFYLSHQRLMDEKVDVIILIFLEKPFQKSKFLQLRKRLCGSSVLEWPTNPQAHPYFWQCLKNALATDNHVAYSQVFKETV
Details: administered parenterally as monotherapy; cited from earlier work

In the case of `CCc1nc2c(N)nc3ccccc3c2n1CCCCNS(C)(=O)=O` [852A], the clinical efficacy is given as “modest clinical efficacy with disease stabilization”.
